Data reported in patent publication US8389526B2, “3-heteroarylmethyl-imidazo[1,2-b]pyridazin-6-yl derivatives” (Novartis AG, priority 2009, dated 2013).

Experiments:
[1] = molecular target: T1, c-Met receptor tyrosine kinase, GST-c-Met(969-1390) (Homo sapiens, UniProt P08581); test: EPK c-Met profiling assay (LanthaScreen TR-FRET kinase assay); format: biochemical; conditions: 2 μM ATP, 0.3 nM enzyme, 60 minutes at room temperature
T1 construct: made in house
Experimental: A number of compounds of the present invention were assayed in an antibody based kinase phosphorylation assay as follows.
Epk c-Met Profiling Assay:
The EPK kinase assay for c-Met receptor tyrosine kinase was developed, using the purified recombinant GST-fusion protein, containing the cytoplasmic domain of the enzyme. GST-c-Met(969-1390) was purified by affinity chromatography.
The kinase assay is based on the LanthaScreen™ technology. LanthaScreen™ is the detection of Time-Resolved Fluorescence Resonance Energy Transfer (TR-FRET) using lanthanide chelates to measure interactions between various binding partners. In a TR-FRET kinase assay, a long-lifetime lanthanide donor species is conjugated to an antibody that specifically binds to a phosphorylated product of a kinase reaction that is labeled with a suitable acceptor fluorophore. This antibody-mediated interaction brings the lanthanide donor and the acceptor into proximity such that resonance energy transfer can take place, resulting in a detectible increase in the FRET signal.
The kinase reactions were performed in 384 well microtiter plates in a total reaction volume of 9.05 μL. The assay plates were prepared with 0.05 μL per well of test compound in the appropriate test concentration, as described under “preparation of compound dilutions”. The reactions were started by combining 4.5 μL of ATP solution with 4.5 μL of enzyme-substrate mix (consisting of kinase and substrate). The final concentrations in the kinase reactions were 35 mM Tris/HCl, 1 mM DTT, 0.025% Tween20, 10 μM sodium orthovanadate, 0.25% BSA, 0.6% DMSO, 10 mM MgCl2, 3 mM MnCl2, 2 μM ATP, 50 nM Fluorescein-PolyEAY, and 0.3 nM enzyme.
The reactions were incubated for 60 minutes at room temperature and stopped by adding 4.5 μL of stop buffer (50 mM EDTA, 0.04% NP40, 20 mM Tris/HCl).
Subsequently 4.5 μL of detection mix (50 mM Tris/HCl, 2 mM DTT, 0.05% Tween20, 20 μM sodium orthovanadate, 1% BSA, 1.72 μg/mL Tb-PY20 antibody) were added to the stopped reactions. After 30 minutes incubation at room temperature, the plates were measured in a BMG Pherastar fluorescence reader. The effect of compound on the enzymatic activity was in all assays obtained from the linear progress curves and determined from one reading (end point measurement).
Preparation of Compound Dilutions
Test compounds were dissolved in DMSO (10 mM) and transferred into 1.4 mL flat bottom or V-shaped Matrix tubes carrying a unique 2D matrix. The stock solutions were stored at −20° C. if not used immediately. For the test procedure the vials were defrosted and identified by a scanner whereby a working sheet was generated that guided the subsequent working steps.
Compound dilutions were made in 96 well plates. This format enabled the assay of maximally 40 individual test compounds at 8 concentrations (single points) including 4 reference compounds. The dilution protocol included the production of “pre-dilution plates”, “master plates” and “assay plates”.
Pre-dilution plates: 96 polypropylene well plates were used as pre-dilution plates. A total of 4 pre-dilution plates were prepared including 10 test compounds each on the plate positions A1-A10, one standard compound at A11 and one DMSO control at A12. All dilution steps were done on a HamiltonSTAR robot.
Master plates: 100 μL of individual compound dilutions including standard compound and controls of the 4 “pre-dilution plates” were transferred into a 384 “master plate” including the following concentrations 1′820, 564, 182, 54.6, 18.2, 5.46, 1.82 and 0.546 μM, respectively in 90% of DMSO.
Assay plates: Identical “assay plates” were then prepared by pipetting 50 nL each of compound dilutions of the “master plates” into 384-well “assay plates” by means of a HummingBird 384-channel dispenser. These plates were used directly for the assay which was performed in a total volume of 9.05 μL. […]

[2] = tested on: MET-amplified gastric cancer cell line GTL-16; test: GTL-16 proliferation assay (MTS); format: cell-based; conditions: Homo sapiens, GTL-16 cells, 72 h incubation
Experimental: (§1) C-Met Dependent Cellular Assays
(§2) A number of compounds of the present invention were assayed in a c-Met dependent proliferation and phosphorylation assay as follows.
GTL-16 proliferation assay: the MET-amplified gastric cancer cell line GTL-16 was grown under standard cell culture conditions in DMEM [Dulbecco's Modified Eagle Medium] (high glucose) supplemented with 10% heat-inactivated fetal calf serum and 2 mM L-glutamine. For proliferation assays, cells were seeded at 3000 per well in 96-well-plates. 24 h later, a 10-point dilution series of each compound (3-fold steps, ranging from […]) was prepared in DMSO. Compound were then diluted 1000-fold in growth media in two steps and added to cells in triplicates, resulting in a final volume of […] per well and maximal final compound concentrations of […]. A DMSO-only control was included. Cells were incubated for 72 h and the amount of viable cells was then measured by adding […] of MTS reagent (CellTiter 96® AQueous Non-Radioactive Cell Proliferation Assay, Promega), further incubation for 30′, and reading the optical density at 490 nm.

c-Met = molecular target: T2, c-Met (Homo sapiens, UniProt P08581); test: GTL-16 c-Met autophosphorylation measured by AlphaScreen detection; format: cell-based; conditions: GTL-16 cells, 1 h incubation, AlphaScreen p-c-Met; read-out: GTL-16 IC50 c-Met phosphorylation
T2 construct: adapted to measure the phosphorylation of endogenous cellular proteins in cell lysates; endogenous in cells; host or cells: GTL-16
Experimental: as §1, §2
GTL-16 c-Met autophosphorylation measured by AlphaScreen® detection: the human MET-amplified gastric cancer cells GTL-16 were plated in 384-well plates at a density of 10′000 cells in 20 ul complete growth medium (DMEM high glucose supplemented with 10% (v/v) heat inactivated fetal calf serum and of 1 mM sodium pyruvate) and were incubated at […]/5% CO2/95% humidity for 20 h. The cells were washed and the 30 ul assay buffer (DMEM high glucose, 1 mM sodium pyruvate, 0.1% bovine serum albumine) was added. Compounds were diluted in 384-well compound plates to obtain 8-point serial dilutions for 40 test compounds in 90% DMSO, as well as a reference compound plus 16 high- and 16 low (inhibited) controls. These compound plates were prediluted 1:200 in assay buffer into a compound predilution plate and 10 ul of prediluted compound solution were transferred to the cell plate using a 384-well pipettor, resulting in a final DMSO concentration of 0.11%. Cells were incubated for 1 h at […]/5% CO2/95% humidity. The supernatant was removed, the cells were lysed in 25 ul of RIPA [radio immuno precipitation assay] lysis buffer supplemented with 2 mM sodium vanadate and a protease inhibitor cocktail, and cell plates were stored at −80° C.
For detection of p-c-Met, an AlphaScreen®-based assay was used. AlphaScreen® (Amplified Luminescent Proximity Homogeneous Assay, ALPHA, Perkin Elmer, U.S.A) is a non-radioactive bead-based proximity assay technology to study biomolecular interactions in a homogenous microtiter plate format. This technique has been adapted to measure the phosphorylation of endogenous cellular proteins in cell lysates by the use of specific antibody pairs against the total protein and a phospho-specific epitope. 5 ul of cell lysate was transferred to 384-well low volume Proxiplates for detection using a 384-well pipettor. First, 5 ul of a premix of an anti-c-Met antibody (0.25 ug/ml f.c.), a biotinylated PY20 antibody (phosphotyrosine antibody, 0.05 ug/ml f.c.) and AlphaScreen® Protein A-coupled acceptor beads (10 ug/ml f.c.) in RIPA buffer supplemented with 0.25% (v/w) TOP BLOCK, 2 mM sodium vanadate, and a protease inhibitor cocktail and was added, the plate was sealed, and incubated on a plate shaker for 2 hours at room temperature. Second, 2 ul of dilution buffer containing AlphaScreen® Streptavidin-coated donor beads (10 ug/ml f.c.) in RIPA buffer was added, and the plate was incubated on plate shaker as above for a further 2 hours. The plate was read on an AlphaScreen® compatible plate reader, using standard AlphaScreen® settings.

T2 sequence (P08581 25-1390): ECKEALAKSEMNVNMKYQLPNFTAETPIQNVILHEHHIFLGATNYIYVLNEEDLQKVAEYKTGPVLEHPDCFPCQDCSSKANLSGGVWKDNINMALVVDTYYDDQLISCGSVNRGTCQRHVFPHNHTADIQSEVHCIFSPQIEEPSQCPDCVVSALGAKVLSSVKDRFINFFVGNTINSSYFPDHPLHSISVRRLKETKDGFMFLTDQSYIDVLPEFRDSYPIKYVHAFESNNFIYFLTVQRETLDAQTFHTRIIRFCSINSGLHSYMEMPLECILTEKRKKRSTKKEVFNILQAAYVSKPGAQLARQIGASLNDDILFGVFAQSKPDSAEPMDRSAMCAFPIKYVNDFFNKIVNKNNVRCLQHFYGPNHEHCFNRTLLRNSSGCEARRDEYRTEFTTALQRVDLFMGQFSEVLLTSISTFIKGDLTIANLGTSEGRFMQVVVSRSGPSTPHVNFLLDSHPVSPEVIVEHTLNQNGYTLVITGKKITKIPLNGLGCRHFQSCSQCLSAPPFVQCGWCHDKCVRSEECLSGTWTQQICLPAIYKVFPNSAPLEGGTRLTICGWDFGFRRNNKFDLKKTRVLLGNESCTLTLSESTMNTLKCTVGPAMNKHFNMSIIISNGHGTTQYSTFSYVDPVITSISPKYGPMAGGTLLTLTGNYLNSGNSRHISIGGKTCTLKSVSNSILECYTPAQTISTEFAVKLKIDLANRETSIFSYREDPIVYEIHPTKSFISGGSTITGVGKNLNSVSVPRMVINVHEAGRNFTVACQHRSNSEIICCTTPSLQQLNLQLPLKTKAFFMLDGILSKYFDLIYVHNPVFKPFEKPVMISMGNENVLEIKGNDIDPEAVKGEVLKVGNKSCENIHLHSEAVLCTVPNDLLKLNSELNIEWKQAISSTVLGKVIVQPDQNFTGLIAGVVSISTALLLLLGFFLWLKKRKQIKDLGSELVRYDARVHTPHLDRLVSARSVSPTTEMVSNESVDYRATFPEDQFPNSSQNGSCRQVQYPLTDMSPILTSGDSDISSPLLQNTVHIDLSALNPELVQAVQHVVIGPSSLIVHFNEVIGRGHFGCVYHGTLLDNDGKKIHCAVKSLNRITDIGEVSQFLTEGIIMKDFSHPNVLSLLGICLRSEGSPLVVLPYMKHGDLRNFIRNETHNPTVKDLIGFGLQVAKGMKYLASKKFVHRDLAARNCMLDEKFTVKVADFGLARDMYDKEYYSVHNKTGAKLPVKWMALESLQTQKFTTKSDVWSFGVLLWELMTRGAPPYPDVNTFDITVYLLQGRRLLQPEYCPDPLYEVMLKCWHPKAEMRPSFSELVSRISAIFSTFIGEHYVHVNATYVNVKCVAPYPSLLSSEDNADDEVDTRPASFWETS
T1 sequence (P08581 969-1390): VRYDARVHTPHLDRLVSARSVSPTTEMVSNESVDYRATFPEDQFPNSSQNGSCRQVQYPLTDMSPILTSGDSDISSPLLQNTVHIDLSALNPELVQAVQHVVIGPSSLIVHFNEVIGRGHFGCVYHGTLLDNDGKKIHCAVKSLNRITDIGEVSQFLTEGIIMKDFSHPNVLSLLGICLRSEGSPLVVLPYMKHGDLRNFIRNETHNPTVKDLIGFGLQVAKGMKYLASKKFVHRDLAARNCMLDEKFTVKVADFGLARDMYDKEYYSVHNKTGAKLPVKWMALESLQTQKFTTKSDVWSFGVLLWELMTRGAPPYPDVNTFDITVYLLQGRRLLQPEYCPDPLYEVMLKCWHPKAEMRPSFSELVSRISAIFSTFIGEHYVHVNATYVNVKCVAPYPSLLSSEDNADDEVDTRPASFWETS

| Structure (SMILES) | IC50 [1] [nM] | IC50 [2] [nM] | IC50 (c-Met) [nM] |
| --- | --- | --- | --- |
| CC(c1c(F)cc2ncccc2c1F)c1cnc2ccc(N3CCN(C)C(=O)C3)nn12 (racemic) [Example 1, (rac)-4-{3-[1-(5,7-Difluoro-quinolin-6-yl)-ethyl]-imidazo[1,2-b]pyridazin-6-yl}-1-methyl-piperazin-2-one] | 8.6 | 9.1 | < 3 |
| CC(c1c(F)cc2ncccc2c1F)c1cnc2ccc(N3CCNC(=O)C3)nn12 (racemic) [Example 3, (rac)-4-{3-[1-(5,7-Difluoro-quinolin-6-yl)-ethyl]-imidazo[1,2-b]pyridazin-6-yl}-piperazin-2-one] | 5.2 | 6 | < 3 |
| CC(c1c(F)cc2ncccc2c1F)c1cnc2ccc(N3CCNCC3)nn12 (racemic) [Example 6, (rac)-5,7-Difluoro-6-[1-(6-piperazin-1-yl-imidazo[1,2-b]pyridazin-3-yl)-ethyl]-quinoline] | 4.5 | 11.6 | 3 |
| CC(c1c(F)cc2ncccc2c1F)c1cnc2ccc(N3CCN(C)CC3)nn12 (racemic) [Example 8, (rac)-5,7-Difluoro-6-{1-[6-(4-methyl-piperazin-1-yl)-imidazo[1,2-b]pyridazin-3-yl]-ethyl}-quinoline] | 5.7 | 15.5 | < 3 |
| CC(=O)N1CCN(c2ccc3ncc(C(C)c4c(F)cc5ncccc5c4F)n3n2)CC1 (racemic) [Example 10, (rac)-1-(4-{3-[1-(5,7-Difluoro-quinolin-6-yl)-ethyl]-imidazo[1,2-b]pyridazin-6-yl}-piperazin-1-yl)ethanone] | < 3 | 14.6 | < 3 |
| CC(c1c(F)cc2ncccc2c1F)c1cnc2ccc(N3CCN(C(N)=O)CC3)nn12 (racemic) [Example 15, (rac)-4-{3-[1-(5,7-Difluoro-quinolin-6-yl)-ethyl]-imidazo[1,2-b]pyridazin-6-yl}-piperazine-1-carboxylic acid amide] | 5.4 | 18 | 8.3 |
| CC(c1c(F)cc2ncccc2c1F)c1cnc2ccc(N3CCN(C(=O)C(F)(F)F)CC3)nn12 (racemic) [Example 17, (rac)-1-(4-{3-[1-(5,7-Difluoro-quinolin-6-yl)-ethyl]-imidazo[1,2-b]pyridazin-6-yl}-piperazin-1-yl)-2,2,2-trifluoro-ethanone] | 24 | 20 | 14 |
| CC(c1c(F)cc2ncccc2c1F)c1cnc2ccc(N3CCN(C4CCCC4)C(=O)C3)nn12 (racemic) [Example 20, (rac)-4-{3-[1-(5,7-Difluoro-quinolin-6-yl)-ethyl]-imidazo[1,2-b]pyridazin-6-yl}-1-cyclopentylpiperazin-2-one] | 27 | 21 | 7 |
| CC(c1c(F)cc2ncccc2c1F)c1cnc2ccc(N3CCN(C)C(=O)C3C)nn12 (racemic) [Example 21, (rac)-4-{3-[1-(5,7-Difluoro-quinolin-6-yl)-ethyl]-imidazo[1,2-b]pyridazin-6-yl}-1,3-dimethylpiperazin-2-one] | 19 | 9 | < 3 |
| CC(c1c(F)cc2ncccc2c1F)c1cnc2ccc(N3CCN(c4ccccc4)C(=O)C3)nn12 (racemic) [Example 22, (rac)-4-{3-[1-(5,7-Difluoro-quinolin-6-yl)-ethyl]-imidazo[1,2-b]pyridazin-6-yl}-1-phenylpiperazin-2-one] | 14 | 15 | 6 |
| CC(c1c(F)cc2ncccc2c1F)c1cnc2ccc(N3CC(=O)NCC3C)nn12 (racemic) [Example 23, (rac)-4-{3-[1-(5,7-Difluoro-quinolin-6-yl)-ethyl]-imidazo[1,2-b]pyridazin-6-yl}-5-methylpiperazin-2-one] | 15 | 8.5 | 3.3 |
| CC1CN(c2ccc3ncc(C(C)c4c(F)cc5ncccc5c4F)n3n2)CC(=O)N1 (racemic) [Example 24, (rac)-4-{3-[1-(5,7-Difluoro-quinolin-6-yl)-ethyl]-imidazo[1,2-b]pyridazin-6-yl}-6-methylpiperazin-2-one] | 4 | 9.8 | 4 |
| CC(c1c(F)cc2ncccc2c1F)c1cnc2ccc(N3CCN(c4ccccn4)C(=O)C3)nn12 (racemic) [Example 25, (rac)-4-{3-[1-(5,7-Difluoro-quinolin-6-yl)-ethyl]-imidazo[1,2-b]pyridazin-6-yl}-1-(pyridin-2-yl)piperazin-2-one] | 15 | 13 | 8 |
| CC(c1cc2cnn(C)c2cc1F)c1cnc2ccc(N3CCNC(=O)C3)nn12 (racemic) [Example 27, (rac)-4-{3-[1-(6-Fluoro-1-methyl-1H-indazol-5-yl)-ethyl]-imidazo[1,2-b]pyridazin-6-yl}-piperazin-2-one] | 73 | 173 | 3 |
